Source: US12466843B2, “Gadolinium-based compound, method for producing same, and MRI contrast agent containing same” (KYUNGPOOK NATIONAL UNIVERSITY INDUSTRY-ACADEMIC COOPERATION …, priority 2019, dated 2025)

Molecular target: T1, VGLUT1 (Rattus norvegicus, UniProt Q62634)
T1 construct: only the hippocampus and the cerebral cortex were selected and isolated; endogenous in cells; host or cells: primary neurons from hippocampus and cerebral cortex of Sprague Dawley rat fetuses
T1 sequence (Q62634 1-560): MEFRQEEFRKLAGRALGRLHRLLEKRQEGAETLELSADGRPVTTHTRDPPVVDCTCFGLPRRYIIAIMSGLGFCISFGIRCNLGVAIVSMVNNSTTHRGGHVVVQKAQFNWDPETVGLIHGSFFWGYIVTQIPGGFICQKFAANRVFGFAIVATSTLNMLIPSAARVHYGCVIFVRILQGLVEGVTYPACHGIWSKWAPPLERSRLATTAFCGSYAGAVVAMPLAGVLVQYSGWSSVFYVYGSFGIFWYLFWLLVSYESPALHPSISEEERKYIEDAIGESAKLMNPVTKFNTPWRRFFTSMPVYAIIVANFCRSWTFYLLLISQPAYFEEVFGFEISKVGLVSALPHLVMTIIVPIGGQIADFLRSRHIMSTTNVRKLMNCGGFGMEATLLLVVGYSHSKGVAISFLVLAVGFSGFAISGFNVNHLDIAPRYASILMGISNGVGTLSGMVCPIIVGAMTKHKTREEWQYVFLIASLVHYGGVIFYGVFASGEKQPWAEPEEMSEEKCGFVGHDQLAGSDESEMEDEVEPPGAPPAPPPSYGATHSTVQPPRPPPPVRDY
Experiment: In vitro binding test via primary culture: MR phantom study
Format: cell-based, Sprague Dawley rats
Settings: primary rat brain neurons, 0, 50, 100, 200, 400 μM, 24 hours, washed, 3T MRI; FIG. 6A/6B
Description: 2) In Vitro Binding Test Via Primary Culture 2)-(1). Experimental Method {circumflex over (1)} Primary Culture of Rat Brain Neurons
Sprague Dawley rats at […] of pregnancy were purchased from Daehan Biolink. After stabilizing the pregnant […], respiratory anesthesia was performed using isoflurane, and the fetus was separated from the mother. The fetal brain was separated therefrom, the membrane was removed therefrom, and only the hippocampus and the cerebral cortex were selected and isolated, cut into small pieces, put in HBSS buffer and washed 4 times (centrifugation 1000 rpm, 3 minutes). After the last washing, HBSS was removed, and HBSS buffer containing trypsin was added thereto (cell volume: trypsin HBSS=1:1) and reaction occurred in a constant temperature water bath (37° C.) for 5 minutes. HBSS buffer containing 10% FBS was added thereto ((cell volume+trypsin HBSS): 10% FBS HBSS=1:1) to stop the enzyme reaction of trypsin, and the resulting product passed through 4 layers of lens paper and thus was formed into single cells. The cells were washed 4 times via centrifugation with HBSS buffer, and only the cells separated into the single cells were obtained. […]
The obtained cells were suspended in neurobasal media containing 1×N2 supplement, 1×B27, 4 mM L-glutamine, and 1% antibiotics at 7×10^6 cells per E-tube. […] MRI intensity was analyzed using ImageJ program.

Compound: O=C([O-])CN1CCN(CC(=O)[O-])CCN([C@H](CO)[C@H](O)CO)CCN(CC(=O)[O-])CC1.[Gd+3] (racemic) [Gadovist]
- phantom signal intensity (brightness) based on Gd concentration: little difference in brightness based on the Gd concentration
